Among the test systems are SNB-75 CNS; UACC-257 melanoma; M14 melanoma; HOP-92 NSCLC; TK-10 renal; UACC-62 melanoma; NCI-H460 lung; U251 CNS; SK-OV-3 ovarian; COLO 205 colon.
What all share (assay): NCI tumour cell line growth inhibition, 48 h

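96-well plates; 48 h exposure; 5 concentrations. Endpoints by linear interpolation between flanking doses. Not reached: highest tested concentration assigned. At the GI50, growth is halved. At the TGI there is no net growth.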

Regarding `Cc1ccc(S(=O)(=O)NC(=O)NC23CC4CC(CC(F)(C4)C2)C3)cc1`, the TGI in the assay on SNB-75 CNS, with UACC-257 melanoma, in the assay with M14 melanoma, in the assay on HOP-92 NSCLC, in the assay with TK-10 renal and with UACC-62 melanoma was more than 100 µM in each case. Moreover, the TGI with NCI-H460 lung, in the assay with U251 CNS, in the assay with SK-OV-3 ovarian and with COLO 205 colon was more than 100 µM in each case.
For `O=C(Nc1nc2ccccc2n1Cc1ccccc1)NC12CC3CC(CC(C3)C1)C2`, the TGI is 49.8 µM in the assay on SNB-75 CNS; more than 100 µM with UACC-257 melanoma; more than 100 µM with M14 melanoma; 83.6 µM with HOP-92 NSCLC; more than 100 µM with TK-10 renal; more than 100 µM with UACC-62 melanoma. The TGI with NCI-H460 lung, in the assay with U251 CNS, with SK-OV-3 ovarian and in the assay on COLO 205 colon was more than 100 µM throughout.
For `COCC(=O)CP(=O)(OC)OC`, the TGI in the assay with SNB-75 CNS, in the assay with UACC-257 melanoma, in the assay on M14 melanoma, in the assay on HOP-92 NSCLC, with TK-10 renal and in the assay with UACC-62 melanoma was more than 100 µM throughout. Also, the TGI in the assay on NCI-H460 lung, with U251 CNS, in the assay on SK-OV-3 ovarian and in the assay on COLO 205 colon was more than 100 µM in each case.
As to `O=c1cc2ccccc2nn1Cc1ccccc1Cl`, the TGI with SNB-75 CNS is 93.8 µM; in the assay on UACC-257 melanoma, more than 100 µM; in the assay on M14 melanoma, more than 100 µM; in the assay on HOP-92 NSCLC, more than 100 µM; in the assay on TK-10 renal, more than 100 µM; in the assay on UACC-62 melanoma, more than 100 µM. In addition, the TGI in the assay on NCI-H460 lung, in the assay on U251 CNS, with SK-OV-3 ovarian and in the assay with COLO 205 colon was more than 100 µM throughout.
For `CCOC(=O)C(=Cc1ccccc1[N+](=O)[O-])C(=O)OCC`, the GI50 with SNB-75 CNS is 2.57 µM; with UACC-257 melanoma, 3.25 µM; in the assay on M14 melanoma it was 2.95 µM; with HOP-92 NSCLC, 3.67 µM; with TK-10 renal it was 5.39 µM; with UACC-62 melanoma it was 1.59 µM. For the same molecule, the GI50 is 3.25 µM in the assay on NCI-H460 lung, 3.65 µM in the assay on U251 CNS, 3.51 µM with SK-OV-3 ovarian and 2.14 µM in the assay with COLO 205 colon. In addition, the TGI stood at 9.68 µM with SNB-75 CNS; 14.3 µM in the assay with UACC-257 melanoma; 10.1 µM in the assay on M14 melanoma; 8.8 µM with HOP-92 NSCLC; 15.7 µM in the assay on TK-10 renal; 3.39 µM in the assay with UACC-62 melanoma. For the same molecule, the TGI in the assay on NCI-H460 lung amounted to 10.8 µM; in the assay on U251 CNS, 13.1 µM; in the assay on SK-OV-3 ovarian it was 12.7 µM; with COLO 205 colon it was 3.85 µM.
Consider `COc1ccc2c(Nc3ccc(NS(C)(=O)=O)cc3)c3ccccc3nc2c1`, for which the GI50 in the assay with SNB-75 CNS was 0.718 µM; with UACC-257 melanoma it was 0.628 µM; with M14 melanoma, 0.599 µM; in the assay with HOP-92 NSCLC, 0.136 µM; with TK-10 renal, 0.596 µM; in the assay with UACC-62 melanoma, 0.383 µM. The GI50 in the assay on NCI-H460 lung was 0.0618 µM; in the assay on U251 CNS it was 0.475 µM; with SK-OV-3 ovarian, 0.364 µM; in the assay with COLO 205 colon, 0.384 µM. Moreover, the TGI was found to be 2.12 µM in the assay with SNB-75 CNS; 2.17 µM in the assay on UACC-257 melanoma; 2.03 µM in the assay on M14 melanoma; 2.66 µM with HOP-92 NSCLC; 4.96 µM in the assay on TK-10 renal; 1.93 µM in the assay with UACC-62 melanoma. Moreover, the TGI with NCI-H460 lung stood at 1.11 µM; in the assay with U251 CNS, 9.02 µM; in the assay on SK-OV-3 ovarian, 5.26 µM; in the assay on COLO 205 colon, 1.58 µM.
In the case of `Cc1cc(C)c(C[N+](C)(C)C)c(C)c1C`, the GI50 is 0.402 µM in the assay on SNB-75 CNS; 0.465 µM with UACC-257 melanoma; 0.374 µM in the assay with M14 melanoma; 0.285 µM with HOP-92 NSCLC; 0.528 µM in the assay on TK-10 renal; 0.538 µM in the assay on UACC-62 melanoma. Also, the GI50 in the assay on NCI-H460 lung is 0.367 µM; in the assay on U251 CNS, 0.307 µM; with SK-OV-3 ovarian it was 0.499 µM; in the assay on COLO 205 colon, 0.236 µM. Moreover, the TGI came out at 11.5 µM in the assay with SNB-75 CNS; 6.69 µM with UACC-257 melanoma; 11.1 µM in the assay with M14 melanoma; 13.5 µM in the assay on HOP-92 NSCLC; 12.1 µM in the assay on TK-10 renal; 18.9 µM in the assay with UACC-62 melanoma. Also, the TGI was more than 100 µM in the assay with NCI-H460 lung, 34.7 µM in the assay on U251 CNS, 11.2 µM in the assay with SK-OV-3 ovarian and 1.85 µM in the assay with COLO 205 colon.
As to `OCC1OC(n2ccc3c(NO)ncnc32)C(O)C1O` (stereo not given), the GI50 was 0.172 µM with SNB-75 CNS; 0.232 µM in the assay on UACC-257 melanoma; 0.077 µM in the assay with M14 melanoma; 0.154 µM with HOP-92 NSCLC; 0.152 µM in the assay on TK-10 renal; 0.128 µM with UACC-62 melanoma. For the same molecule, the GI50 is 0.044 µM with NCI-H460 lung, 0.168 µM in the assay on U251 CNS, 0.12 µM in the assay with SK-OV-3 ovarian and 0.114 µM in the assay on COLO 205 colon. Moreover, the TGI in the assay on SNB-75 CNS was found to be 1.82 µM; with UACC-257 melanoma, 0.866 µM; in the assay with M14 melanoma, 0.578 µM; in the assay with HOP-92 NSCLC it was 0.608 µM; in the assay on TK-10 renal, 1.16 µM; with UACC-62 melanoma it was 0.326 µM. For the same molecule, the TGI was 4.45 µM in the assay with NCI-H460 lung, more than 20.2 µM in the assay with U251 CNS, 5.38 µM in the assay on SK-OV-3 ovarian and 0.617 µM in the assay with COLO 205 colon.
As to `NC(=O)c1cc(Br)cc(C2CCCCC2)c1O`, the GI50 in the assay with SNB-75 CNS is 11.9 µM; in the assay with UACC-257 melanoma, 16.3 µM; in the assay with M14 melanoma, 12.8 µM; in the assay with HOP-92 NSCLC, 12.2 µM; with TK-10 renal it was 13.4 µM; in the assay on UACC-62 melanoma, 11.5 µM. Also, the GI50 with NCI-H460 lung is 15.6 µM; in the assay with U251 CNS, 10.8 µM; in the assay on SK-OV-3 ovarian, 17.2 µM; in the assay with COLO 205 colon it was 16.5 µM. Moreover, the TGI worked out at 25.9 µM with SNB-75 CNS; 30.1 µM with UACC-257 melanoma; 25.6 µM in the assay on M14 melanoma; 25.7 µM with HOP-92 NSCLC; 28.1 µM with TK-10 renal; 23.9 µM with UACC-62 melanoma. Besides, the TGI worked out at 30.5 µM with NCI-H460 lung, 23 µM with U251 CNS, 31.1 µM in the assay with SK-OV-3 ovarian and 31.1 µM with COLO 205 colon.
As to `COc1cc2noc(-c3ccccc3)c2cc1OC`, the TGI is 35.4 µM in the assay on SNB-75 CNS; more than 100 µM in the assay with UACC-257 melanoma; more than 100 µM with M14 melanoma; more than 100 µM in the assay on HOP-92 NSCLC; more than 100 µM in the assay with TK-10 renal; more than 100 µM in the assay on UACC-62 melanoma. Besides, the TGI in the assay on NCI-H460 lung, with U251 CNS, in the assay on SK-OV-3 ovarian and in the assay with COLO 205 colon was more than 100 µM in each case.
As for `COc1ccccc1NC(=O)n1nc(N)c2ccccc21`, the GI50 was 37 µM in the assay with SNB-75 CNS; more than 100 µM in the assay on UACC-257 melanoma; more than 100 µM with M14 melanoma; 22.7 µM with HOP-92 NSCLC; 64.2 µM in the assay on TK-10 renal; more than 100 µM in the assay with UACC-62 melanoma. Also, the GI50 with NCI-H460 lung is 47.6 µM; with U251 CNS, 74.1 µM; in the assay on SK-OV-3 ovarian it was more than 100 µM; in the assay on COLO 205 colon it was more than 100 µM. For the same molecule, the TGI with SNB-75 CNS is more than 100 µM; in the assay on UACC-257 melanoma it was more than 100 µM; in the assay with M14 melanoma it was more than 100 µM; in the assay with HOP-92 NSCLC, 76.5 µM; in the assay with TK-10 renal, more than 100 µM; with UACC-62 melanoma, more than 100 µM. Moreover, the TGI in the assay with NCI-H460 lung, with U251 CNS, with SK-OV-3 ovarian and in the assay on COLO 205 colon was more than 100 µM throughout.
`CCC(=O)C(C)C1=Nc2nnc(CCCCCCCc3nnc4n3C(=O)C(C(C)C(=O)CC)=N4)n2C1=O` (stereo not given): the TGI in the assay with SNB-75 CNS, in the assay on UACC-257 melanoma, in the assay on M14 melanoma, with HOP-92 NSCLC, with TK-10 renal and in the assay on UACC-62 melanoma was more than 100 µM in each case. For the same molecule, the TGI with NCI-H460 lung, in the assay on U251 CNS, with SK-OV-3 ovarian and in the assay with COLO 205 colon was more than 100 µM throughout.
As to `OCCSCc1ccccc1`, the TGI with SNB-75 CNS, in the assay with UACC-257 melanoma, in the assay with M14 melanoma, in the assay on HOP-92 NSCLC, with TK-10 renal and with UACC-62 melanoma was more than 100 µM in each case. Further, the TGI with NCI-H460 lung, in the assay on U251 CNS, in the assay on SK-OV-3 ovarian and in the assay with COLO 205 colon was more than 100 µM each time.
Turning to `COC1CC2C=C(C)/C=C/C=C/C(=O)NC(c3ccccc3)C/C=C/CCC(O)CC(=O)C2=C1O` (stereo not given), the GI50 was 0.208 µM with SNB-75 CNS; 0.186 µM with UACC-257 melanoma; 0.31 µM with M14 melanoma; 0.141 µM with HOP-92 NSCLC; 0.298 µM in the assay on TK-10 renal; 0.318 µM with UACC-62 melanoma. For the same molecule, the GI50 in the assay with NCI-H460 lung was 0.24 µM; in the assay with U251 CNS it was 0.153 µM; with SK-OV-3 ovarian it was 0.369 µM; in the assay with COLO 205 colon, 0.159 µM. In addition, the TGI in the assay with SNB-75 CNS came to 0.828 µM; in the assay with UACC-257 melanoma it was 0.577 µM; in the assay on M14 melanoma, 1.47 µM; with HOP-92 NSCLC it was 0.457 µM; in the assay on TK-10 renal it was 1.31 µM; in the assay with UACC-62 melanoma, 1.54 µM. Moreover, the TGI in the assay with NCI-H460 lung was 1.19 µM; in the assay with U251 CNS, 0.994 µM; in the assay with SK-OV-3 ovarian, 1.46 µM; in the assay on COLO 205 colon, 0.315 µM.
For the molecule `O=C1C=C(Br)C(=O)C12CCc1ccccc12` (stereo not given), the TGI turned out to be 29.5 µM in the assay on SNB-75 CNS; 41.3 µM with UACC-257 melanoma; 19.3 µM in the assay on M14 melanoma; 27.3 µM in the assay with HOP-92 NSCLC; 32.3 µM in the assay with TK-10 renal; 32 µM in the assay with UACC-62 melanoma. Besides, the TGI was 48 µM with NCI-H460 lung, 41.8 µM with U251 CNS, 42.6 µM with SK-OV-3 ovarian and 11.2 µM in the assay with COLO 205 colon.

These data come from PubChem BioAssay (NCI).
